{"source": "paper PMC12481576", "about": "“Barbituric Acid Derivatives as Covalent Inhibitors of Leishmania braziliensis Dihydroorotate Dehydrogenase” (Journal of Medicinal Chemistry, 2025)", "key": {"LbDHODH": {"biological_target": "LbDHODH (Leishmania braziliensis, UniProt E9AI53)", "sequence (E9AI53 entry or part of it)": "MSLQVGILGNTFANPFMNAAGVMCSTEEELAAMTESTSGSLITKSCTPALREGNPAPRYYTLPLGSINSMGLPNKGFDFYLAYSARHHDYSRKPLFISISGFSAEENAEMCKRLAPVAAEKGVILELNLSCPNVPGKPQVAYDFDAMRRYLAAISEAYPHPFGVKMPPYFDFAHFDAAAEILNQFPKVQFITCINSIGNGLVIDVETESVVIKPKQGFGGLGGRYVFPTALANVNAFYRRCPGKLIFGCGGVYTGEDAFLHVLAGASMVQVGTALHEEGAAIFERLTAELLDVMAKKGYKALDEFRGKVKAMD", "experiment": "biochemical", "conditions": "for IC50: LbDHODH", "outline": "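Covalent inactivation constant kinact/KI came from linear fitting of early kobs values against inhibitor concentration. Activity followed by A610 (DCIP, DHO substrate) every 3 s over 60 s in Tris pH 8.15/KCl/Triton X-100 buffer, in triplicate; single-point 100 μM screen run at 0 h and after 4-h preincubation.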"}, "HsDHODH": {"biological_target": "T1, HsDHODH (Homo sapiens, UniProt Q02127)", "T1 construct": "made in house", "T1 sequence (Q02127 whole entry)": "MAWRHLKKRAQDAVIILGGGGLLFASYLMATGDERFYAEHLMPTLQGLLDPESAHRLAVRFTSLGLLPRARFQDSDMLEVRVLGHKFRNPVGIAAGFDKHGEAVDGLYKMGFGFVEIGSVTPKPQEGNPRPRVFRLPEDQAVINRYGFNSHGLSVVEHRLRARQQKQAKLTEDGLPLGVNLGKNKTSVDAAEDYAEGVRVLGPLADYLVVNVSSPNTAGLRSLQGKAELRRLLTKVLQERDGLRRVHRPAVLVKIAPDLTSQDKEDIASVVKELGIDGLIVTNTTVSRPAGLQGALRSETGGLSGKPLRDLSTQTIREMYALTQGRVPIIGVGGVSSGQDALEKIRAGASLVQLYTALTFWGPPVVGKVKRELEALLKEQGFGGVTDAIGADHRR", "experiment": "Selectivity assay: HsDHODH single-dose inhibition (DCIP reduction)", "assay_type": "biochemical", "outline": "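Single-dose format, run in triplicate: His-purified HsDHODH (20 nM final) started by adding reaction buffer, absorbance at 610 nm (DCIP) recorded for 60 s at 3-s intervals. Initial rates converted to percent of no-compound control activity.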"}, "[1]": {"system": "Leishmania braziliensis promastigotes", "experiment": "Leishmanicidal activity, promastigote growth (SYBR Green, 72 h)", "assay_type": "cell-based, Leishmania (V.) braziliensis (MHOM/BR/1975/M2904)", "conditions": "Leishmania braziliensis, L. braziliensis promastigotes, max 200 μM", "outline": "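Cultures at 4 × 10^6 parasites/mL were exposed 72 h to serially decreasing compound levels, top 200 μM, with final DMSO 0.5% and medium-only control.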"}, "[2]": {"experiment": "Cell viability / cytotoxicity assay (PrestoBlue, 72 h)", "assay_type": "cell-based", "conditions": "human; THP-1 cell line, 72 h, max 200 μM; read-out: CC50", "outline": "(§1)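 Viability was measured with PrestoBlue fluorescence (560/590 nm, 2 h) after 72 h compound exposure at 37 °C. Test concentrations descended from 200 μM. The THP-1 monocytes had first been differentiated with 150 ng/mL phorbol myristate acetate for 48 h, then rested 24 h.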"}, "THP-1 cells": {"system": "THP-1 cells", "experiment": "Cell viability / cytotoxicity assay (PrestoBlue, 72 h)", "assay_type": "cell-based", "conditions": "THP-1 cell line, 72 h, max 200 μM", "outline": "as §1"}, "[3]": {"conditions": "0 h, pH 8.15, read-out: LbDHODH Activity±SD (%)"}, "[4]": {"conditions": "4 h, pH 8.15, read-out: LbDHODH Activity±SD (%)"}, "[5]": {"conditions": "read-out: Single dose (0h) % activity"}, "[6]": {"conditions": "read-out: Single dose (4h) % activity"}}, "note": "Like-named read-outs stand apart in the source and are kept apart here.", "data": [{"smiles": "O=C1NC(=O)C(=Cc2ccc(-c3ccccc3)cc2)C(=O)N1", "note": "[2f, 5-([1,1′-Biphenyl]-4-ylmethylene)pyrimidine-2,4,6(1H,3H,5H)-trione]", "values": [{"measurement": "activity at 0.024414 µM", "setting": "LbDHODH; [3]", "value": "97 ± 2", "unit": "%"}, {"measurement": "activity at 0.048828 µM", "setting": "LbDHODH; [3]", "value": "93 ± 2", "unit": "%"}, {"measurement": "activity at 0.0976562 µM", "setting": "LbDHODH; [3]", "value": "98 ± 2", "unit": "%"}, {"measurement": "activity at 0.195312 µM", "setting": "LbDHODH; [3]", "value": "97 ± 2", "unit": "%"}, {"measurement": "activity at 0.390625 µM", "setting": "LbDHODH; [3]", "value": "91 ± 2", "unit": "%"}, {"measurement": "activity at 0.78125 µM", "setting": "LbDHODH; [3]", "value": "94 ± 2", "unit": "%"}, {"measurement": "activity at 1.5625 µM", "setting": "LbDHODH; [3]", "value": "100 ± 2", "unit": "%"}, {"measurement": "activity at 3.125 µM", "setting": "LbDHODH; [3]", "value": "94 ± 2", "unit": "%"}, {"measurement": "activity at 6.25 µM", "setting": "LbDHODH; [3]", "value": "96 ± 2", "unit": "%"}, {"measurement": "activity at 12.5 µM", "setting": "LbDHODH; [3]", "value": "86 ± 2", "unit": "%"}, {"measurement": "activity at 25 µM", "setting": "LbDHODH; [3]", "value": "83 ± 2", "unit": "%"}, {"measurement": "activity at 50 µM", "setting": "LbDHODH; [3]", "value": "71 ± 2", "unit": "%"}, {"measurement": "activity at 100 µM", "setting": "LbDHODH; [3]", "value": "62 ± 2", "unit": "%"}, {"measurement": "activity at 200 µM", "setting": "LbDHODH; [3]", "value": "43 ± 1", "unit": "%"}, {"measurement": "activity at 0.024414 µM", "setting": "LbDHODH; [4]", "value": "103 ± 3", "unit": "%"}, {"measurement": "activity at 0.048828 µM", "setting": "LbDHODH; [4]", "value": "104 ± 3", "unit": "%"}, {"measurement": "activity at 0.0976562 µM", "setting": "LbDHODH; [4]", "value": "104 ± 3", "unit": "%"}, {"measurement": "activity at 0.195312 µM", "setting": "LbDHODH; [4]", "value": "95.5 ± 2", "unit": "%"}, {"measurement": "activity at 0.390625 µM", "setting": "LbDHODH; [4]", "value": "95.9 ± 2", "unit": "%"}, {"measurement": "activity at 0.78125 µM", "setting": "LbDHODH; [4]", "value": "85.6 ± 2", "unit": "%"}, {"measurement": "activity at 1.5625 µM", "setting": "LbDHODH; [4]", "value": "83.3 ± 2", "unit": "%"}, {"measurement": "activity at 3.125 µM", "setting": "LbDHODH; [4]", "value": "73.6 ± 2", "unit": "%"}, {"measurement": "activity at 6.25 µM", "setting": "LbDHODH; [4]", "value": "53 ± 1", "unit": "%"}, {"measurement": "activity at 12.5 µM", "setting": "LbDHODH; [4]", "value": "41 ± 1", "unit": "%"}, {"measurement": "activity at 25 µM", "setting": "LbDHODH; [4]", "value": "25.2 ± 0.6", "unit": "%"}, {"measurement": "activity at 50 µM", "setting": "LbDHODH; [4]", "value": "10 ± 0.2", "unit": "%"}, {"measurement": "activity at 100 µM", "setting": "LbDHODH; [4]", "value": "3.8 ± 0.1", "unit": "%"}, {"measurement": "activity at 200 µM", "setting": "LbDHODH; [4]", "value": "0.95 ± 0.02", "unit": "%"}, {"measurement": "IC50", "setting": "LbDHODH; IC50 0 h, without preincubation", "value": "160 ± 10", "unit": "µM"}, {"measurement": "IC50", "setting": "LbDHODH; IC50 4 h, 4-h preincubation", "value": "7.7 ± 0.3", "unit": "µM"}, {"measurement": "activity at 100 µM", "setting": "LbDHODH; [5]", "value": "62 ± 2", "unit": "%"}, {"measurement": "activity at 100 µM", "setting": "LbDHODH; [6]", "value": "3.8 ± 0.1", "unit": "%"}, {"measurement": "inhibition at 100 µM", "setting": "LbDHODH; read-out: enzyme inhibition", "value": 96.2, "unit": "%"}, {"measurement": "activity at 100 µM", "setting": "HsDHODH; [5]", "value": "103 ± 12", "unit": "%"}, {"measurement": "activity at 100 µM", "setting": "HsDHODH; [6]", "value": "78 ± 8", "unit": "%"}, {"measurement": "EC50", "setting": "[1]", "value": "19 ± 14", "unit": "µM"}, {"measurement": "CC50 at 72 h", "setting": "[2]", "value": "12 ± 3", "unit": "µM"}, {"measurement": "CC50", "setting": "THP-1 cells", "value": "strong cytotoxicity"}]}]}
